Experimental data reported in US20060234987A1, “Neuroprotective benzo 1 3 oxathiol 2 ones” (priority 2003, published 2006).

Assays:
PP1 = PP1 Assay; type: biochemical; conditions: Table 6
Experimental: E) PP1 Assay: Inhibition of the phosphatase PP1 was performed according to reported procedures (Nat. Biotechnol., 2000, 18, 847).

SCG neurons = assay: Protection of SCG neurons from anti-NGF killing; type: cell-based, Sprague Dawley rats; conditions: Rattus norvegicus, Neuron; anti-NGF antibody, 48 hours, Alamar Blue viability; read-out: IC50, rescue from anti-NGF killing of cultured SCG neurons
Experimental: Neurotrophins are critical to the growth, development, and survival of small fiber neurons of the PNS. SCG neurons are neurons of the PNS that undergo apoptosis upon NGF withdrawal. In a typical experiment SCG neurons are cultured in the presence of NGF, which induces survival and neurite out-growth. After 5 days the NGF is removed by either the addition of anti-NGF polyclonal antibody (Sigma) or by repeated washings (4 times) with NGF free media, resulting in the apoptosis of up to 90% of the neurons after 48 hours, as measured by MTS staining. The addition of selected compounds of Formula I to the final cellular media provides upwards of 100% protection, at drug concentrations ranging from 10 to 50 μM (see Example 62).
Protection of SCG neurons from anti-NGF killing. SCG neurons were isolated from day 1 neonatal Sprague Dawley rats, plated at a cell density of 5,000 cells/well, and incubated in Biowhittaker Ultraculture containing 1% Penstrep, 1% L-glutamine, 0.7% ARAC, 3% rat serum, and NGF (50 ng/mL, Calomone Labs), at 37° C., under a 5% CO2 atmosphere. After 4 days the cells were treated with anti-NGF antibody (Sigma). At this time compound was added and the cells were maintained serum and NGF free for 48 hours, at which time viability of the neurons was assessed using Alamar Blue (Medicorp) staining. Table 3 summarizes selected IC50 values from compounds tested using this protocol.

PTP-1B = biological target: T1, PTP-1B (Homo sapiens, UniProt P18031); assay: PTP-1B Assay; type: biochemical; conditions: Table 6
T1 construct: purchased BIOMOL Research Laboratories, Inc
T1 sequence (P18031 1-435): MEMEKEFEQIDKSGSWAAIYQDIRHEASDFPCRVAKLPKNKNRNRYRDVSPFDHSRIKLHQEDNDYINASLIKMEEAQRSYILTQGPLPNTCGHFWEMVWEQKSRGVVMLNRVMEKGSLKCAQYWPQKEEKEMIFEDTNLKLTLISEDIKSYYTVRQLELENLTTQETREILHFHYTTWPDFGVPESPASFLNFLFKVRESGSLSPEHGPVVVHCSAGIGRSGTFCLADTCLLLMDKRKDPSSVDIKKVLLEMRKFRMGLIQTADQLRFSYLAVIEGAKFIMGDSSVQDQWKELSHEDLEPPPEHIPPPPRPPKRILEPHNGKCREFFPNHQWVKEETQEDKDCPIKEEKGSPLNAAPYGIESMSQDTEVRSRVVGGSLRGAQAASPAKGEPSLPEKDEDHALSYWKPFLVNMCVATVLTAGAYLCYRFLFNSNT
Experimental: B) PTP-1B Assay: Inhibition of the phosphatase PTP1B was performed according to reported procedures (Puius, Y. A. et a. Proc. Natl. Acad. Sci., 1997, 94, 13420; Liu, F. J. Biol. Chem., 1996, 271, 31290). PTP1B was purchased from BIOMOL Research Laboratories, Inc.

CD45 = biological target: T2, CD45 (Homo sapiens, UniProt P08575); assay: CD45 (PTPase) Assay; type: biochemical; conditions: Table 6
T2 construct: purchased BIOMOL Research Laboratories, Inc
T2 sequence (P08575 26-1306): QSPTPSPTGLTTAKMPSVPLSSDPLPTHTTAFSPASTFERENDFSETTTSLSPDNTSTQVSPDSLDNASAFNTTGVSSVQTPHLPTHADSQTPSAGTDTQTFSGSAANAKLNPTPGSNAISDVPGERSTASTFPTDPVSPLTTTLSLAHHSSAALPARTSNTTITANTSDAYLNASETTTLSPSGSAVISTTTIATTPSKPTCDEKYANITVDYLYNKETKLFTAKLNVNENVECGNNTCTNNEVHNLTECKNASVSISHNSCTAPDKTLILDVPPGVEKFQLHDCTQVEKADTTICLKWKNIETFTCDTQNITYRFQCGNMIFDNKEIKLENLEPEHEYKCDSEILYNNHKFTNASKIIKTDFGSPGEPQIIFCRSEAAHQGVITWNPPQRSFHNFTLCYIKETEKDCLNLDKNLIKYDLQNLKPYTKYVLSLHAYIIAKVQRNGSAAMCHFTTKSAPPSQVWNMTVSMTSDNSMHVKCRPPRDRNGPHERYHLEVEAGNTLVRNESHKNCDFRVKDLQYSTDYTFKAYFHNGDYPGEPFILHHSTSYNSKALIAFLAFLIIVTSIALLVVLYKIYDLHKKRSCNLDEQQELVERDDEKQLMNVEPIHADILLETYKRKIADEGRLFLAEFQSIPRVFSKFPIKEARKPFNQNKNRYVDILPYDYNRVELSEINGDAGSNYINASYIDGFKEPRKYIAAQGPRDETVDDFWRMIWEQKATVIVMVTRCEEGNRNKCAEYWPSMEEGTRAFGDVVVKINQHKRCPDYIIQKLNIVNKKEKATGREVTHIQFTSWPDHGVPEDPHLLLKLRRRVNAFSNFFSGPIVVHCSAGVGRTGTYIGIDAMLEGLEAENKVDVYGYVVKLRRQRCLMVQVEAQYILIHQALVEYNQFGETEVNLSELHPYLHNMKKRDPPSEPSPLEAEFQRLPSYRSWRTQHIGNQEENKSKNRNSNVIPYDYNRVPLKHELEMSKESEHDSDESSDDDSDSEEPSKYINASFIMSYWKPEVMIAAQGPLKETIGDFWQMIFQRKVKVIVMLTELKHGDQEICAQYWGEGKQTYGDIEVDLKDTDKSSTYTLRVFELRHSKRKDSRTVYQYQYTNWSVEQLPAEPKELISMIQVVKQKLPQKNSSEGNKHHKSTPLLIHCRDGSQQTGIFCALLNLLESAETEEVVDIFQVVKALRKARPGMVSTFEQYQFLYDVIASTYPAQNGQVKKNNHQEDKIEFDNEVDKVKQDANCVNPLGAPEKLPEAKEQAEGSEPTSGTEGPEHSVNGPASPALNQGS
Experimental: D) CD45 (PTPase) Assay: Inhibition of the phosphatase CD45 was performed according to reported procedures (Pacitti, A. et al Biochem. Biophys. Acta, 1994, 1222, 277; Fisher, D. K. and Higgins, T. J. Pharmacol. Res., 1994, 11, 759). CD45 was purchased from BIOMOL Research Laboratories, Inc.

Compound | PP1 IC50 (PP1) | IC50 (SCG neurons) [µM] | PTP-1B IC50 (PTP-1B) | C45 IC50 (CD45)
O=c1oc2c(Sc3ccc4ccccc4c3)cc(O)c(Sc3ccc4ccccc4c3)c2s1 [Compound 30, 4,7-Bis-((2-naphthyl)sulfanyl)-5-hydroxybenzo[1,3]oxathiol-2-one] | no inh. | > 30 | no inh. | no inh.
O=c1oc2c(Sc3ccc4ccccc4c3)cc(O)cc2s1 [Compound 23, 5-Hydroxy-7-((2-naphthy)sulfanyl)benzo[1,3]oxathiol-2-one] | no inh. | 25 | no inh. | no inh.
